Laboratory results: the NIST ThermoML archive (doi:10.1016/j.fluid.2012.10.024)
Numbers after ± are expanded uncertainties.

Tests used:
[1] = mn = molality of the nth substance listed, in mol/kg; settings: 101 kPa, Liquid, Vibrating tube method
[2] = 101.33 kPa, Liquid, Vibrating tube method

OCC1CCCNC1 (configuration not stated) [3-(hydroxymethyl)piperidine] + O
mass density [kg/m3], [1]
Settings | m1 = 0.0562 | m1 = 0.0841 | m1 = 0.1205 | m1 = 0.1576 | m1 = 0.188 | m1 = 0.2257 | m1 = 0.2728 | m1 = 0.3059 | m1 = 0.3481
293.15 K | 999.04 ± 0.2 | 999.09 ± 0.2 | 999.36 ± 0.2 | 999.67 ± 0.2 | 999.94 ± 0.2 | 1000.2 ± 0.2 | 1000.48 ± 0.2 | 1000.72 ± 0.2 | 1000.95 ± 0.2
298.15 K | 997.9 ± 0.2 | 997.94 ± 0.2 | 998.2 ± 0.2 | 998.52 ± 0.2 | 998.77 ± 0.2 | 999.02 ± 0.2 | 999.285 ± 0.2 | 999.52 ± 0.2 | 999.74 ± 0.2
303.15 K | 996.5 ± 0.2 | 996.53 ± 0.2 | 996.79 ± 0.2 | 997.1 ± 0.2 | 997.34 ± 0.2 | 997.58 ± 0.2 | 997.835 ± 0.2 | 998.06 ± 0.2 | 998.27 ± 0.2
308.15 K | 994.87 ± 0.2 | 994.9 ± 0.2 | 995.16 ± 0.2 | 995.46 ± 0.2 | 995.7 ± 0.2 | 995.93 ± 0.2 | 996.165 ± 0.2 | 996.39 ± 0.2 | 996.59 ± 0.2
313.15 K | 993.05 ± 0.2 | 993.07 ± 0.2 | 993.32 ± 0.2 | 993.61 ± 0.2 | 993.85 ± 0.2 | 994.07 ± 0.2 | 994.3 ± 0.2 | 994.52 ± 0.2 | 994.71 ± 0.2
318.15 K | 991.04 ± 0.2 | 991.06 ± 0.2 | 991.3 ± 0.2 | 991.58 ± 0.2 | 991.82 ± 0.2 | 992.02 ± 0.2 | 992.25 ± 0.2 | 992.46 ± 0.2 | 992.64 ± 0.2

OCc1ccccn1 [α-picolyl alcohol]
[2]
Settings | mass density [kg/m3]
291.15 K | 1133.6 ± 2.5
292.15 K | 1133.1 ± 2.5
293.15 K | 1132.4 ± 2.5
295.15 K | 1130.7 ± 2.5
297.15 K | 1129.3 ± 2.4
298.15 K | 1128.7 ± 2.4
299.15 K | 1127.7 ± 2.4
300.15 K | 1127.1 ± 2.4
302.15 K | 1125.6 ± 2.4
303.15 K | 1124.8 ± 2.4
304.15 K | 1124 ± 2
306.15 K | 1122.4 ± 2.4
308.15 K | 1120.8 ± 2.4
310.15 K | 1119.4 ± 2.4
312.15 K | 1118.1 ± 2.4
313.15 K | 1117.2 ± 2.4
315.15 K | 1115.6 ± 2.4
317.15 K | 1114.2 ± 2.4
318.15 K | 1113.5 ± 2.4

OCc1cccnc1 [β-picolyl alcohol]
[2]
Settings | mass density [kg/m3]
291.15 K | 1138.2 ± 1
292.15 K | 1137.5 ± 1
293.15 K | 1136.8 ± 1
295.15 K | 1135.3 ± 1
297.15 K | 1134.1 ± 1
298.15 K | 1133.5 ± 1
299.15 K | 1132.6 ± 1
300.15 K | 1131.8 ± 1
302.15 K | 1130.4 ± 1
303.15 K | 1129.6 ± 1
304.15 K | 1128.9 ± 1
306.15 K | 1127.5 ± 1
308.15 K | 1125.9 ± 1
310.15 K | 1124.7 ± 1
312.15 K | 1123.5 ± 1
313.15 K | 1122.6 ± 1
315.15 K | 1121.2 ± 1
317.15 K | 1120 ± 1
318.15 K | 1119.3 ± 1
